Measured values from patent US10519152B2, “Compounds and their use in treating cancer” (AstraZeneca AB, priority 2017, dated 2019).

Legend:
[1] = target: T1, recombinant human Estrogen Receptor alpha ligand binding domain, residues 307-554 (ER alpha-LBD (GST)) (Homo sapiens, UniProt P03372); test: ERα binding assay (LanthaScreen TR-FRET competition); details: TR-FRET competition with Fluormone ES2 tracer, 4 hours at room temperature; single experiment or average of two or more
T1 construct: made in house
T1 sequence (P03372 307-554): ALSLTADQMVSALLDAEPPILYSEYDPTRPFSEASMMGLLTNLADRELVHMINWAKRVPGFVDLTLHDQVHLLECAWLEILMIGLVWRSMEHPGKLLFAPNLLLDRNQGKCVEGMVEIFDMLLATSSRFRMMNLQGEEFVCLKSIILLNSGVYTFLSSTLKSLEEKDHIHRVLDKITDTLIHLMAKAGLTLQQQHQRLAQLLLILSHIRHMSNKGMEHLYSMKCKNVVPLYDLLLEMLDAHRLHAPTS
Experimental: The ability of compounds to bind to isolated Estrogen Receptor Alpha Ligand binding domain (ER alpha-LBD (GST)) was assessed in competition assays using a LanthaScreen™ Time-Resolved Fluorescence Resonance Energy Transfer (TR-FRET) detection end-point. For the LanthaScreen TR-FRET endpoint, a suitable fluorophore (Fluormone ES2, ThermoFisher, Product code P2645) and recombinant human Estrogen Receptor alpha ligand binding domain, residues 307-554 (expressed and purified in-house) were used to measure compound binding. The assay principle is that ER alpha-LBD (GST) is added to a fluorescent ligand to form a receptor/fluorophore complex. A terbium-labelled anti-GST antibody (Product code PV3551) is used to indirectly label the receptor by binding to its GST tag, and competitive binding is detected by a test compound's ability to displace the fluorescent ligand, resulting in a loss of TR-FRET signal between the Tb-anti-GST antibody and the tracer. The assay was performed as follows with all reagent additions carried out using the Beckman Coulter BioRAPTR FRD microfluidic workstation: • 1. Acoustic dispense 120 nL of the test compound into a black low volume 384 well assay plates. • 2. Prepare 1×ER alpha-LBD/Tb-antiGST Ab in ES2 screening buffer and incubate for 15 minutes. • 3. Dispense 6 μL of the […] reagent into each well of the assay plate followed by 6 μL of Fluorophore reagent into each well of the assay plate • 4. Cover the assay plate to protect the reagents from light and evaporation, and incubate at room temperature for 4 hours. • 5. Excite at 337 nm and measure the fluorescent emission signal of each well at 490 nm and 520 nm using the BMG PheraSTAR.
Compounds were dosed directly from a compound source microplate containing serially diluted compound (4 wells containing 10 mM, […] and 10 nM final compound respectively) to an assay microplate using the Labcyte Echo 550. The Echo 550 is a liquid handler that uses acoustic technology to perform direct microplate-to-microplate transfers of DMSO compound solutions and the system can be programmed to transfer multiple small nL volumes of compound from the different source plate wells to give the desired serial dilution of compound in the assay which is then back-filled to normalise the DMSO concentration across the dilution range.
In total 120 nL of compound plus DMSO were added to each well and compounds were tested in a 12-point concentration response format over a final compound concentration range of 10, 2.917, 1.042, 0.2083, 0.1, 0.0292, 0.0104, 0.002083, 0.001, 0.0002917, 0.0001042, and 0.00001 μM respectively. TR-FRET dose response data obtained with each compound was exported into a suitable software package (such as Origin or Genedata) to perform curve fitting analysis. Competitive ER alpha binding was expressed as an IC50 value. This was determined by calculation of the concentration of compound that was required to give a 50% reduction in tracer compound binding to ER alpha-LBD.

[2] = target: T2, Estrogen Receptor (ERα) in MCF-7 human ductal carcinoma breast cell line (Homo sapiens, UniProt P03372); test: MCF-7 ER degradation assay (cell based immuno-fluorescence); details: MCF-7 cells; for DC50: 18-22 hours incubation, 50% reduction of ERα expression, single experiment or average of two or more, read-out: MCF-7 ER degradation IC50
T2 construct: endogenous in cells; host or cells: MCF-7
T2 sequence (P03372 1-595): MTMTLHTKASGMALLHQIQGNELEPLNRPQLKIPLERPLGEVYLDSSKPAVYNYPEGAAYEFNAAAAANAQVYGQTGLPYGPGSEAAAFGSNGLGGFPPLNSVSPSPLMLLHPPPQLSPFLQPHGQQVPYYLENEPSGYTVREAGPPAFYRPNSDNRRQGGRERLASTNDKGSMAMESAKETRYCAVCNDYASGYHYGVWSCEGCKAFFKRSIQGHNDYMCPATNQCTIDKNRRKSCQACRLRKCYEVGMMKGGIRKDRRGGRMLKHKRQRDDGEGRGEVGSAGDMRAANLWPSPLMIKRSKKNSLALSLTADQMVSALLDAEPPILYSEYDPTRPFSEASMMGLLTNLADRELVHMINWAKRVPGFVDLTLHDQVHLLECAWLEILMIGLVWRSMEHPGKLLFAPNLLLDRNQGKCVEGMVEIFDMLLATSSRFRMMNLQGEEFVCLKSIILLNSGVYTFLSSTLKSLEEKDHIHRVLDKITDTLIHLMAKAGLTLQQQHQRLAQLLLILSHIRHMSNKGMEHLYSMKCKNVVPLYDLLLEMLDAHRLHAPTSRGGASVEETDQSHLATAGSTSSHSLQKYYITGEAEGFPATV
Experimental: MCF-7 ER Degradation Assay
The ability of compounds to down-regulate Estrogen Receptor (ER) numbers was assessed in a cell based immuno-fluorescence assay using the MCF-7 human ductal carcinoma breast cell line. MCF-7 cells were revived directly from a cryovial (approx 5×10^6 cells) in Assay Medium (phenol red free Dulbecco's Modified Eagle's medium (DMEM); Sigma D5921) containing 2 mM L-Glutamine and 5% (v/v) Charcoal/Dextran treated foetal calf serum. Cells were syringed once using a sterile 18 G×1.5 inch (1.2×40 mm) broad gauge needle and cell density was measured using a Coulter Counter (Beckman). Cells were further diluted in Assay Medium to a density of 3.75×10^4 cells per mL and 40 μL per well added to transparent bottomed, black, tissue culture-treated 384 well plates (Costar, No. 3712) using a Thermo Scientific Matrix WellMate or Thermo Multidrop. Following cell seeding, plates were incubated overnight at 37° C., 5% CO2 (Liconic carousel incubator). Test data was generated using the LabCyte Echo™ model 555 compound reformatter which is part of an automated workcell (Integrated Echo 2 workcell). Compound stock solutions (10 mM) of the test compounds were used to generate a 384 well compound dosing plate (Labcyte P-05525-CV1). 40 μL of each of the 10 mM compound stock solutions was dispensed into the first quadrant well and then 1:100 step-wise serial dilutions in DMSO were performed using a Hydra II (MATRIX UK) liquid handling unit to give 40 μL of diluted compound into quadrant wells 2 (0.1 mM), 3 (1 μM) and 4 (0.01 μM), respectively. 40 μL of DMSO added to wells in row P on the source plate allowed for DMSO normalisation across the dose range. To dose the control wells 40 μL of DMSO was added to row O1 and 40 μL of 100 μM fulvestrant in DMSO was added to row O3 on the compound source plate.
The Echo uses acoustic technology to perform direct microplate-to-microplate transfers of DMSO compound solutions to assay plates. The system can be programmed to transfer volumes as low as 2.5 nL in multiple increments between microplates and in so doing generates a serial dilution of compound in the assay plate which is then back-filled to normalise the DMSO concentration across the dilution range. Compounds were dispensed onto the cell plates with a compound source plate prepared as above producing a 12 point duplicate […] dose range with 3-fold dilutions and one final 10-fold dilution using the Integrated Echo 2 workcell. The maximum signal control wells were dosed with DMSO to give a final concentration of 0.3%, and the minimum signal control wells were dosed with fulvestrant to give a final concentration of 100 nM accordingly. Plates were further incubated for 18-22 hours at 37° C., 5% CO2 and then fixed by the addition of 20 μL of 11.1% (v/v) formaldehyde solution (in phosphate buffered saline (PBS)) giving a final formaldehyde concentration of 3.7% (v/v). Cells were fixed at room temperature for 20 mins before being washed two times with 250 μL PBS/Proclin (PBS with a Biocide preservative) using a BioTek platewasher, 40 μL of PBS/Proclin was then added to all wells and the plates stored at 4° C. The fixing method described above was carried out on the Integrated Echo 2 workcell. Immunostaining was performed using an automated AutoElisa workcell. The PBS/Proclin was aspirated from all wells and the cells permeabilised with 40 μL PBS containing 0.5% Tween™ 20 (v/v) for 1 hour at room temperature. The plates were washed three times in 250 μL of PBS/0.05% (v/v) Tween 20 with Proclin (PBST with a Biocide preservative) and then 20 μL of ERα (SP1) Rabbit monoclonal antibody (Thermofisher) 1:1000 in PBS/Tween™/3% (w/v) Bovine Serum Albumin was added. The plates were incubated overnight at 4° C. (Liconic carousel incubator) and then washed three times in 250 μL of PBS/0.05% (v/v) Tween™ 20 with Proclin (PBST). […]

Structure (SMILES)	IC50 [1] [nM]	DC50 [2] [nM]	ER degradation ≥ 90% at 0.3 μM ([2]; 0.3 μM, ER degradation by fulvestrant at 0.3 μM is defined as 100%)
Cc1ncsc1-c1ccc(CNC(=O)[C@@H]2C[C@@H](O)CN2C(=O)[C@@H](NC(=O)CCCCN2CCN(CCOc3cc(F)c([C@@H]4c5[nH]c6ccccc6c5C[C@@H](C)N4CC(C)(C)F)c(F)c3)CC2)C(C)(C)C)cc1 [Example 102, (2S,4R)-1-((S)-2-(5-(4-(2-(3,5-difluoro-4-((1R,3R)-2-(2-fluoro-2-methylpropyl)-3-methyl-2,3,4,9-tetrahydro-1H-pyrido[3,4-b]indol-1-yl)phenoxy)ethyl)piperazin-1-yl)pentanamido)-3,3-dimethylbutanoyl)-4-hydroxy-N-(4-(4-methylthiazol-5-yl)benzyl)pyrrolidine-2-carboxamide]	0.6	0.9	–
Cc1ncsc1-c1ccc(CNC(=O)[C@@H]2C[C@@H](O)CN2C(=O)[C@@H](NCc2ccc(COc3cc(F)c([C@@H]4c5[nH]c6ccccc6c5C[C@@H](C)N4CC(C)(C)F)c(F)c3)cc2)C(C)(C)C)cc1 [Example 35, (2S,4R)-1-((S)-2-((4-((3,5-difluoro-4-((1R,3R)-2-(2-fluoro-2-methylpropyl)-3-methyl-2,3,4,9-tetrahydro-1H-pyrido[3,4-b]indol-1-yl)phenoxy)methyl)benzyl)amino)-3,3-dimethylbutanoyl)-4-hydroxy-N-(4-(4-methylthiazol-5-yl)benzyl)pyrrolidine-2-carboxamide]	1	9.1	–
Cc1ncsc1-c1ccc(CNC(=O)[C@@H]2C[C@@H](O)CN2C(=O)[C@@H](NC(=O)CN2CCC3(CCN(CCOc4cc(F)c([C@@H]5c6[nH]c7ccccc7c6C[C@@H](C)N5CC(C)(C)F)c(F)c4)CC3)CC2)C(C)(C)C)cc1 [Example 43, (2S,4R)-1-((S)-2-(2-(9-(2-(3,5-difluoro-4-((R,3R)-2-(2-fluoro-2-methylpropyl)-3-methyl-2,3,4,9-tetrahydro-1H-pyrido[3,4-b]indol-1-yl)phenoxy)ethyl)-3,9-diazaspiro[5.5]undecan-3-yl)acetamido)-3,3-dimethylbutanoyl)-4-hydroxy-N-(4-(4-methylthiazol-5-yl)benzyl)pyrrolidine-2-carboxamide]	2.3	4.8	–
Cc1ncsc1-c1ccc(CNC(=O)[C@@H]2C[C@@H](O)CN2C(=O)[C@@H](NC(=O)COCc2cccnc2COc2cc(F)c([C@@H]3c4[nH]c5ccccc5c4C[C@@H](C)N3CC(C)(C)F)c(F)c2)C(C)(C)C)cc1 [Example 133, (2S,4R)-1-((S)-2-(2-((2-((3,5-Difluoro-4-((1R,3R)-2-(2-fluoro-2-methylpropyl)-3-methyl-2,3,4,9-tetrahydro-1H-pyrido[3,4-b]indol-1-yl)phenoxy)methyl)pyridin-3-yl)methoxy)acetamido)-3,3-dimethylbutanoyl)-4-hydroxy-N-(4-(4-methylthiazol-5-yl)benzyl)pyrrolidine-2-carboxamide]	0.7	0.8	–
Cc1ncsc1-c1ccc(CNC(=O)[C@@H]2C[C@@H](O)CN2C(=O)[C@@H](NC(=O)COCCCc2cccc(COc3cc(F)c([C@@H]4c5[nH]c6ccccc6c5C[C@@H](C)N4CC(C)(C)F)c(F)c3)c2)C(C)(C)C)cc1 [Example 73, (2S,4R)-1-((S)-2-(2-(3-(3-((3,5-Difluoro-4-((1R,3R)-2-(2-fluoro-2-methylpropyl)-3-methyl-2,3,4,9-tetrahydro-1H-pyrido[3,4-b]indol-1-yl)phenoxy)methyl)phenyl)propoxy)acetamido)-3,3-dimethylbutanoyl)-4-hydroxy-N-(4-(4-methylthiazol-5-yl)benzyl)pyrrolidine-2-carboxamide]	1	–	••
